Test results published in BindingDB's records for doi:10.1016/j.chembiol.2009.01.014 (Duke University Medical Center, 2009).

Experiments:
[1] = target: Protein farnesyltransferase/geranylgeranyltransferase type-1 subunit alpha / Protein farnesyltransferase subunit beta (Plasmodium falciparum, UniProt Q5EI73+Q5EI74); assay: PfPFT IC50 Determination; conditions: pH 7.5; 37 °C
Protocol: Assays for PfPFT activity were performed with a PFT-specific scintillation assay (SPA) kit (Amersham Biosciences, Piscataway, NJ). An amount of 1 uM biotinylated lamin B peptide was used. The concentration of [3H]farnesyl pyrophosphate (FPP) was increased beyond manufacturer recommendations to 1 uM. IC50 values were calculated using linear regression analysis of the plots of [3H]FPP prenylation versus concentration of compounds.

[2] = target: Protein farnesyltransferase subunit beta/geranylgeranyltransferase type-1 subunit alpha (Homo sapiens, UniProt P49354+P49356); assay: In Vitro PFT Activity Assay; conditions: pH 7.7; 30 °C
Protocol: In vitro inhibition assay of human PFT was done by measuring the incorporation of [3H] FPP (Amersham Biosciences, Piscataway, NJ) into wild type H-Ras (PFT). The 60,000g post-microsomal supernatant from Daudi cells was incubated in the presence of increasing concentration of compound, H-Ras substrate, and [3H] FPP. Samples were TCA-precipitated and then filtered onto glass fiber filters; unbound [3H] FPP was washed through the filters. Samples were counted on a scintillation counter and activity compared to vehicle controls to obtain IC50 values.

Chain of Protein farnesyltransferase/geranylgeranyltransferase type-1 subunit alpha / Protein farnesyltransferase subunit beta (Q5EI73 1-521): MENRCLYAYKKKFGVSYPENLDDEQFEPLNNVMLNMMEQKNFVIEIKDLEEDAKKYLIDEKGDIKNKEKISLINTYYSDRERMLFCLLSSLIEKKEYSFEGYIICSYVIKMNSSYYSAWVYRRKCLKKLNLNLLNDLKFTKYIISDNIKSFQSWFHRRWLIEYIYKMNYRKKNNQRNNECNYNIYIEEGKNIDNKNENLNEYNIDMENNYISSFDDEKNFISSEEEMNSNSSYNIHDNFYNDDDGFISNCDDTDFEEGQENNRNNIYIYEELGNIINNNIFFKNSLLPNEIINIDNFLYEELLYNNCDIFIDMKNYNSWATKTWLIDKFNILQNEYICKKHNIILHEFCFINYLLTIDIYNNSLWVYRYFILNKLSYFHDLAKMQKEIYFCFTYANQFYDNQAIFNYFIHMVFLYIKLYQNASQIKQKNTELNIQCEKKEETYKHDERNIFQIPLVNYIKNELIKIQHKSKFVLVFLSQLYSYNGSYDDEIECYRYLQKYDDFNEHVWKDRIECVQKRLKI
Chain of Protein farnesyltransferase/geranylgeranyltransferase type-1 subunit alpha / Protein farnesyltransferase subunit beta (Q5EI74 1-923): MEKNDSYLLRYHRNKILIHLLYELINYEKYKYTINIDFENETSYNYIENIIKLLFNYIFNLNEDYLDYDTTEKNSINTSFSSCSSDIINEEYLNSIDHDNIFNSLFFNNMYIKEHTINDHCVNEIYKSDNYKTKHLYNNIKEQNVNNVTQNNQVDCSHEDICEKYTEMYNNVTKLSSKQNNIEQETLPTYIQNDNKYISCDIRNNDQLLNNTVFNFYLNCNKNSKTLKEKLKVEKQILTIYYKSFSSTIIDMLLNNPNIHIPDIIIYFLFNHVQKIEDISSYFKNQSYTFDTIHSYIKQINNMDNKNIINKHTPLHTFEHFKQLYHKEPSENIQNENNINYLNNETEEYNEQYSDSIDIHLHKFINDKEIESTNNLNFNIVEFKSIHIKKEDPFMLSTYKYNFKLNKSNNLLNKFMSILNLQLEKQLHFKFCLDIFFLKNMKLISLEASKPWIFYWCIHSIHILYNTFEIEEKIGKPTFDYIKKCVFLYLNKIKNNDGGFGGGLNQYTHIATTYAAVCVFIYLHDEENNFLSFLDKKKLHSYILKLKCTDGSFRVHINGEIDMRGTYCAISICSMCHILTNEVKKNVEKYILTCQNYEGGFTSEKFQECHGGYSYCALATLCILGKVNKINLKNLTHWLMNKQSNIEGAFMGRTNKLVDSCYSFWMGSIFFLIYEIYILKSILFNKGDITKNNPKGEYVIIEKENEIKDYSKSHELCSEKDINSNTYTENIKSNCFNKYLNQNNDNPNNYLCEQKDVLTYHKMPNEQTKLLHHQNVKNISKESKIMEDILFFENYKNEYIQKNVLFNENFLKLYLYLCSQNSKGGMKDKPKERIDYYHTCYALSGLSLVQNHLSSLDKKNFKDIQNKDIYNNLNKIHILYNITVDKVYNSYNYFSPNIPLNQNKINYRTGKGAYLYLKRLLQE

Structure (SMILES) | IC50 [1] [nM] | IC50 [2] [nM]
Cc1ccccc1S(=O)(=O)N(CCN(Cc1cncn1C)c1ccc(C#N)cc1)CC1CCN(C(=O)OC(C)(C)C)CC1 [ethylenediamine scaffold, 5] | 3 | 
Cc1ccccc1S(=O)(=O)N(CCN(Cc1cncn1C)c1ccc(C#N)cc1)Cc1ccccc1 [ethylenediamine scaffold, 7] | 5 | 160
Cn1cncc1CN(CCN(CC1CCN(C(=O)OC(C)(C)C)CC1)S(=O)(=O)c1ccccc1-c1cccc(CCC(=O)O)c1)c1ccc(C#N)cc1 [ethylenediamine scaffold, 10] | 70 | 800
Cn1cnc(S(=O)(=O)N(CCN(Cc2cncn2C)c2ccc(C#N)cc2)CC2CCN(C(=O)OC(C)(C)C)CC2)c1 [ethylenediamine scaffold, 4] | 1.2 | 3700
Cn1cnc(S(=O)(=O)N(CCN(Cc2cncn2C)c2ccc(C#N)cc2)Cc2ccccc2)c1 [1-Methyl-1H-imidazole-4-sulfonic Acid Benzyl-{2-[(4-cyanophenyl)-(3-methyl-3H-imidazol-4-ylmethyl)amino]ethyl}amide] |  | 56
